Assay results taken from ChEMBL document CHEMBL4402605, “A Chemical Switch for Transforming a Purine Agonist for Toll-like Receptor 7 to a Clinically Relevant Antagonist” (J Med Chem, 2020).
The source made the active and inactive calls. The calls are words filed in the database; no cut-off is given here.

Legend:
Mus musculus [1] = test: (§1) Protection against imiquimod-induced C57BL/6 mouse model of psoriasis assessed as reduction in TNFalpha mRNA expression at 15 mg/kg, po administered via gavage treated 1 day prior to imiquimod application and subsequent daily dosing for 7 consecutive days and measured post-last dose by SYBR green dye based qPCR analysis; type: functional, organism-based
[2] = Toxicity in C57BL/6 mouse assessed as liver inflammation at 15 mg/kg, po administered once daily via gavage for 7 consecutive days and measured post-last dose by H and E staining based histomorphological analysis; type: organism-based; settings: in vivo
[3] = Tmax in C57BL/6 mouse at 15 mg/kg, po administered via gavage by LC-MS/MS analysis; type: ADME, organism-based; settings: in vivo
[4] = Toxicity in C57BL/6 mouse assessed as mesangial proliferation at 15 mg/kg, po administered once daily via gavage for 7 consecutive days and measured post-last dose by H and E staining based histomorphological analysis; type: organism-based; settings: in vivo
Mus musculus [5] = test: as §1, with “suppression of microabscesses” for “reduction in TNFalpha mRNA expression”, “H and E staining” for “SYBR green dye”, “histopathological” for “qPCR”; type: functional
[6] = Toxicity in C57BL/6 mouse assessed as lung immune infiltration at 15 mg/kg, po administered once daily via gavage for 7 consecutive days and measured post-last dose by H and E staining based histomorphological analysis; type: organism-based; settings: in vivo
[7] = Clearance in human liver microsomes at 100 uM by LC-MS/MS analysis relative to hepatic blood flow
[8] = Toxicity in C57BL/6 mouse assessed as inflammation of kidney at 15 mg/kg, po administered once daily via gavage for 7 consecutive days and measured post-last dose by H and E staining based histomorphological analysis; type: organism-based; settings: in vivo
[9] = Toxicity in C57BL/6 mouse assessed as liver fatty infiltration at 15 mg/kg, po administered once daily via gavage for 7 consecutive days and measured post-last dose by H and E staining based histomorphological analysis; type: organism-based; settings: in vivo
Mus musculus [10] = test: as §1, with “suppression of parakeratosis” for “reduction in TNFalpha mRNA expression”, “H and E staining” for “SYBR green dye”, “histopathological” for “qPCR”; type: functional
Mus musculus [11] = test: Protection against imiquimod-induced C57BL/6 mouse model of psoriasis assessed as decrease in skin scaling at 15 mg/kg, po administered via gavage treated 1 day prior to imiquimod application and subsequent daily dosing for 7 consecutive days and measured post-last dose relative to control; type: functional; set-up: scale not given: the % may be the effect or the level left
Mus musculus [12] = test: as §1, with “suppression of suprapapillary thinning” for “reduction in TNFalpha mRNA expression”, “H and E staining” for “SYBR green dye”, “histopathological” for “qPCR”; type: functional
[13] = Volume of distribution at steady state in C57BL/6 mouse at 15 mg/kg, iv by LC-MS/MS analysis; type: ADME, organism-based; settings: in vivo
[14] = Cmax in C57BL/6 mouse at 15 mg/kg, po administered via gavage by LC-MS/MS analysis; type: ADME, organism-based; set-up: dose 15 mg/kg, route oral; settings: in vivo
Mus musculus [15] = test: (§2) Protection against imiquimod-induced C57BL/6 mouse model of psoriasis assessed as decrease in skin thickening at 15 mg/kg, po administered via gavage treated 1 day prior to imiquimod application and subsequent daily dosing for 7 consecutive days and measured post-last dose; type: functional, organism-based
[16] = Oral bioavailability in C57BL/6 mouse at 15 mg/kg administered via gavage by LC-MS/MS analysis; type: ADME, organism-based; settings: in vivo
[17] = Apparent permeability across basal to apical side in human Caco2 cells at 10 uM measured after 120 mins by LC-MS/MS analysis; settings: Caco-2
[18] = Toxicity in C57BL/6 mouse assessed as behavioral changes at 15 mg/kg, po administered once daily via gavage for 7 consecutive days and measured post-last dose by H and E staining based histomorphological analysis; type: organism-based; settings: in vivo
[19] = Toxicity in C57BL/6 mouse assessed as change in hepatocyte survival at 15 mg/kg, po administered once daily via gavage for 7 consecutive days and measured post-last dose by H and E staining based histomorphological analysis; type: organism-based; settings: in vivo
in vitro = settings: mouse, plasma
Description: Stability of the compound in mouse plasma assessed as parent compound remaining at 25 uM measured after 2 hrs by LC-MS/MS analysis

Mus musculus [20] = test: as §2, with “suppression of acanthosis” for “decrease in skin thickening”, “dose by H and E staining based histopathological analysis” for “dose”; type: functional
[21] = molecular target: T1, Toll-like receptor 7 (Homo sapiens) (UniProt Q9NYK1); test: Antagonist activity at TLR7 in human PBMC assessed as inhibition of gardiquimod-induced TNFalpha production at 5 uM preincubated for 1 hr followed by gardiquimod stimulation and measured after overnight incubation by ELISA
T1 sequence (whole entry): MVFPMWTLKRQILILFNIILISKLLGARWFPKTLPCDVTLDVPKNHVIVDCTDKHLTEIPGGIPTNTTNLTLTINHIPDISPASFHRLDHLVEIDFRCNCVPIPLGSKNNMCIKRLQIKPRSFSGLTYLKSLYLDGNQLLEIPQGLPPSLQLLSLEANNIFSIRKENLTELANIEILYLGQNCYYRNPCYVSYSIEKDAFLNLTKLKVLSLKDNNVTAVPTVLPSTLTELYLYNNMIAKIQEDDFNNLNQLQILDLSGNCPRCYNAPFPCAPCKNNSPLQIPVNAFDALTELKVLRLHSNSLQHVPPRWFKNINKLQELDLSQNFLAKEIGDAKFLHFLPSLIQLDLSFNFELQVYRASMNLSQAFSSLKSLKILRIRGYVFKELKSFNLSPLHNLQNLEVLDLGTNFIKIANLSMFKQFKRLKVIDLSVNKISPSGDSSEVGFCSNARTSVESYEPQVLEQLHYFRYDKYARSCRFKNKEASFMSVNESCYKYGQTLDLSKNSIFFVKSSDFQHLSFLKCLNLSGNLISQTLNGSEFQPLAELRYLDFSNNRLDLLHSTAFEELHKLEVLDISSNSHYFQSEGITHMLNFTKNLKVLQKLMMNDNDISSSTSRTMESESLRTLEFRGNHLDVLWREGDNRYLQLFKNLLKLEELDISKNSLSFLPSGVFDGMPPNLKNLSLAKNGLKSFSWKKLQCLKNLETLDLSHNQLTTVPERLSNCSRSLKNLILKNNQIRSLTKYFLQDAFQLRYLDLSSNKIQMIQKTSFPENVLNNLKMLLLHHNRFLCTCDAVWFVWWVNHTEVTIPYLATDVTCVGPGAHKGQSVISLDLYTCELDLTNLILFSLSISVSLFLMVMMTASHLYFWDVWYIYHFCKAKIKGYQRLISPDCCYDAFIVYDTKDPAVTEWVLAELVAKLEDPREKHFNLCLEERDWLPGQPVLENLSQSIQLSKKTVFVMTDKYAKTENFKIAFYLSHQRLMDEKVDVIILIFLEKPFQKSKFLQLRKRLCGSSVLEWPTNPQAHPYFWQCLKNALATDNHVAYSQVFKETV

[22] = AUC (0 to 24 hrs) in C57BL/6 mouse at 15 mg/kg, po administered via gavage by LC-MS/MS analysis; type: ADME, organism-based; set-up: time < 24 hr, dose 15 mg/kg, route oral; settings: in vivo
[23] = Half life in C57BL/6 mouse at 15 mg/kg, po administered via gavage by LC-MS/MS analysis; settings: in vivo
Mus musculus [24] = test: as §1, with “MX1” for “TNFalpha”; type: functional, organism-based

Structure (SMILES): CCN1CCN(CCCn2cnc3c(N4CCN(CC)CC4)ncnc32)CC1
- Activity (Mus musculus [1]): Active
- Activity [2]: Non-Toxic
- Tmax [3]: 2 h
- Activity [4]: Non-Toxic
- Activity (Mus musculus [5]): 100%
- Activity [6]: Non-Toxic
- hepatic extraction ratio at 100 µM [7]: 0.265
- Activity [8]: Non-Toxic
- Activity [9]: Non-Toxic
- Activity (Mus musculus [10]): 100%
- Activity (Mus musculus [11]): 100%
- Activity (Mus musculus [12]): 100%
- Vdss [13]: 4.2 L/kg
- Cmax [14]: 2600 ng/mL
- Activity (Mus musculus [15]): Active
- bioavailability [16]: 70.8%
- Papp B→A at 2 h, 10 µM [17]: 9.28 ×10⁻⁶ cm/s
- Activity [18]: Non-Toxic
- Activity [19]: Non-Toxic
- remaining at 2 h, 25 µM (in vitro): 99.2%
- Activity (Mus musculus [20]): 100%
- inhibition [21]: Active
- AUC(0-t) at 24 h [22]: 36100 ng·h/mL
- half-life [23]: 4.6 h
- Activity (Mus musculus [24]): Active
